Tests used:
[1] = target: T1, Biot-Hif-1α^786-826/GST-p300^323/423 (Homo sapiens, UniProt Q09472); assay: Primary biochemical assay (DELFIA fluorescence) for inhibition of the Hif-1α/p300 interaction; type: binding; details: 10 concentrations from 90 μM to 0.178 μM, 1 h at 25° C.
T1 construct: the p300 region ranging from amino acids 323 to 423; fragment corresponding to C-terminal 786-826 amino acids; host or cells: E. coli BL21 (DE3), vector pGEX-4T-1
Description: Primary Biochemical Assay for the Inhibition of Biot-Hif-1α^786-826/GST-p300^323/423
The compounds were evaluated for their ability to inhibit the interaction between Hif-1α and p300 using a fluorescence assay (DELFIA™). The procedure described by Freedman S J at al., Nature Structural Biology 2003, 10 (7), 504-512 was suitably modified.
The human biotinylated Hif-1α fragment corresponding to C-terminal 786-826 amino acids (Biotinylated Hif-1α^786-826) was obtained from AnaSpec Inc (San Jose, Calif., USA) and used without further purifications.
A construct expressing the GST-p300^323-423 fragment was transformed in the BL21 (DE3) strain of E. coli. Said construct was obtained by cloning in the expression vector pGEX-4T-1 (Amersham No. 27-45-80-01) the DNA sequence which encodes for the p300 region ranging from amino acids 323 to 423; the DNA sequence was obtained by PCR (Polymerase Chain Reaction). The protein region was induced with 1 mM isopropyl-1-tio-β-D-galactopyranoside (IPTG). The bacteria were lysed by sonication in the presence of a suitable buffer (50 mM Tris*HCl pH 8.00, 100 mM NaCl, 0.1 mM ZnSO4, 1 mM DTT, 0.1 mg/ml lysozyme and a tablet of Complete EDTA-free Protease Inhibitor Cocktail Tablets (Roche, catalogue number 1 873 580)) and the GST fusion protein present in the soluble fraction was purified on a Glutathione-Sepharose 4B resin (Amersham Biosciences; no. 27-4574-01). The protein final concentration was determined according to Bradford with the Biorad assay (Bradford M., Anal. Biochem., 72, 248, (1976)). The purity of the sample was evaluated by SDS-PAGE. Samples were stored at −80° C. in 50% glycerol.
The assay was carried out using NUNC Maxisorp 96 wells plates as follows.
C96 NUNC Maxisorp plates (from Nunc, product No. 446612) were incubated overnight with streptavidin (Sigma; product No. S 4762) to a final concentration of 1 μg/ml in PBS buffer (Phosphate Buffered Saline 10 mM sodium phosphate, 150 mM sodium chloride pH 7.4). Each well was subsequently washed with 3×300 μl of TBST buffer (50 mM Tris*HCl pH 8.0, 150 mM NaCl, 0.05% (v/v) Tween 20). Each well was then added with 100 μl of a 10 nM solution of biotinylated Hif-1α^786-826 in TBSB (50 mM Tris-HCl pH 8.0, 150 mM NaCl, 5% (w/v) BSA (Sigma, product No. A 2153)) and incubated for 1 h at 25° C. In the last row of each plate, only the TBSB buffer was added. Each well was subsequently washed three times with 300 μl of TBST buffer. The thus prepared plate represented the assay plate.
Separately, the plate (daughter plate) containing in each well 10 μl of each test compound dissolved in DMSO to a concentration of 10 μM was prepared. This plate was added with 100 μl of a 111 pM solution of GST-p300^323-423 diluted in the incubation buffer (TBSB added with 0.1% (v/v) Tween 20, 0.5 mM DTT, 10 μM ZnCl2) and the whole was mixed. 100 μl of the mixture contained in the daughter plate were immediately transferred to the assay plate.
Each daughter plate was prepared with 80 different compounds at a 10 μM concentration, safe for the two last well rows, wherein each well was added with 10 μl of DMSO. These two rows represented the positive (row 11, +Hif-1) and negative (row 12, −Hif-1) controls.
After incubation for 1 h at 25° C., each well was washed with 3×300 μl of TBST buffer (50 mM Tris-HCl pH 8.0. 150 mM NaCl, 0.05% (v/v) Tween 20). Each well was then added with 60.8 ng of an europium-labelled anti-GST antibody (DELFIA Eu-N1 labeled; Perkin Elmer; product no. A D 0251) dissolved in 100 μl of TBST buffer containing 10 μM ZnCl2. After incubation for 1 h at room temperature, each well was washed with 3×300 μl of TBST buffer, then 100 μl of signal amplification solution (Enhancement Solution, Perkin Elmer product No. 1244-105) were added.
The plates were then read using a FUSION alpha-FP-HT reader (Perkin Elmer) in fluorescence mode for time resolution.
The activity of the compounds was calculated as follows. […]

[2] = test system: VEGF promoter (rat VEGF gene promoter, Hep3B-VEGFLuciferase cells); assay: Luciferase assay in Hep3B-VEGFLuciferase cells, deferoxamine-induced hypoxia; type: cell-based; details: Homo sapiens, deferoxamine about 100 μM, 18-20 hours, 50% inhibition of the luciferase signal
Description: (§1) The compounds having inhibitory activity in the Hif-1α/p300 assay described above were evaluated using a cellular test on genetically modified human hepatocarcinoma Hep3B cells (Hep3B-VEGFLuciferase) in order to stably express a vector in which the Open Reading Frame of firefly Luciferase was under the control of the rat VEGF gene promoter.
Hif-1 Induction using deferoxamine (which induces hypoxia) induces luciferase transcription through activation of the VEGF promoter, which in turn causes an increase in luciferase activity, which can be measured with a commercially available kit. The compounds interfering with the Hif-1α/p300 complex inhibit Hif-dependent luciferase activation, resulting in a reduction of luciferase activity. This assay therefore allows to evaluate the activity of the compounds towards the VEGF promoter, which is essential to VEGF production and the subsequent tumor angiogenesis.
(§2) The Hep-3B-VEGFLuciferase cell line was obtained according to the following procedure.
(§3) Human hepatocarcinoma cells Hep-3B (ATCC reference No. HB-8064) were seeded onto 6 wells plates at a concentration of 2.5×10^5 cells/well in 2 ml DMEM/10% FCS and the following day were transfected using Fugene 6 (Roche Biochemicals®). In each well, the transfection mixtures contained 6 μl of the transfection reagent Fugene 6, 1 μg of the pxp2-VEGF-luciferase reporter plasmid (VEGF rat promoter, NCBI GenBank No. of accession U22373, Levy et al., J. Biol. Chem. 270 (22), 13333-13340. 1995), and 10 ng of pcDNA3.1(+)plasmid (INVITROGEN) which makes cells resistant to neomycin. Transfection was carried out according to the manufacturer's instructions.
(§4) A suitable cell population (phenotypically resistant to neomycin) was selected by means of a cloning approach based on the “dilution limit” procedure (Sambrook J., Fritsch E. F. and Maniatis T. (1989) Molecular Cloning, A Laboratory Manual; Cold Spring Harbor Laboratories). The subsequent assays for Luciferase expression/activity “Luciferase assay” and for the quantification of secreted VEGF in the supernatant “ELISA secreted VEGF test”) were carried out with the stably transfected selected cells.
(§5) The following experimental protocol was used:
(§6) Day 1. Hep-3B-VEGF Luciferase cells were seeded onto 96-wells “blank” plates (a product by Greiner) at a density of 1×10^4 cells/well/125 μl of medium, then left to adhere overnight in thermostat (37° C./5% CO2).
(§7) Day 2. 75 μl of “3.2× working solutions” of compound (previously prepared in culture medium so that the DMSO concentration is 1.6% v/v) were added to the cells (partial volume/well=200 μl, partial concentration of compound=1.2×, partial concentration of DMSO=0.6%). After 1 hour incubation in thermostat, hypoxia was induced chemically by addition of 40 μl/well of a 6× (600 μM) stock solution of deferoxamine (final volume/well=240 μl, final concentration of compound=1×, final concentration of DMSO=0.5%, final concentration of deferoxamine=1×≈100 μM). The plates were then thermostated for further 18-20 hours.
(§8) Day 3. The “Luciferase assay” and the “secreted VEGF ELISA test” were carried out as follows.
Quantification of the expression of the Luciferase reporter gene was performed by means of the Bright Glo Reagent (Promega). After removing the supernatant and washing once with PBS, 40 μl/well of Bright Glo Reagent were added to blank 96-well plates with Hep3B/VEGF-Luciferase cells. The expression levels of the reporter gene were determined by reading the plates with a luminometer.
(§9) IC50 values (concentration of the compound that causes 50% inhibition of the luciferase signal or 50% reduction of secreted VEGF) for some compounds of the invention are reported in table 2: […]

[3] = test system: secreted VEGF (Hep3B-VEGFLuciferase cells); assay: Secreted VEGF ELISA test in Hep3B-VEGFLuciferase cells, deferoxamine-induced hypoxia; type: cell-based; details: Homo sapiens, supernatant, deferoxamine about 100 μM, 18-20 hours, 50% reduction of secreted VEGF
Description: as §1, §2, §3, §4, §5, §6, §7, §8
“Secreted VEGF ELISA Test”
Quantification of secreted VEGF was performed using the kit “DuoSet Elisa Development System human VEGF” kit (R&D Systems). 100 μl/well of the supernatant from the “blank” 96 well-plates with the cells of the Hep3B/VEGF Luciferase clone were transferred into transparent 96-well plates of (Maxisorp) and assayed according to the indications of the kit manufacturer.
as §9

T1 sequence (Q09472 323-423): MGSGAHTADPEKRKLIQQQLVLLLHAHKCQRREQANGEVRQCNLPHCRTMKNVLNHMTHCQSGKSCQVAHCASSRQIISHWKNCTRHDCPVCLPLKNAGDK

Structure (SMILES) | IC50 [1] [µM] | IC50 [2] [nM] | IC50 [3] [µM]
CCOC(=O)c1c2c(n(C)c1CO)C(=O)C(=O)c1ccc(Br)cc1-2 [12(a), Ethyl 8-bromo-2-hydroxymethyl-3-methyl-4,5-dioxo-4,5-dihydro-3H-benzo[e]indole-1-carboxylate] | 14.2 | 320 | 2.03
CCOC(=O)c1c2c(n(C)c1CN(CC)CC)C(=O)C(=O)c1ccc(Br)cc1-2 [12(b), Ethyl 8-bromo-2-diethylaminomethyl-3-methyl-4,5-dioxo-4,5-dihydro-3H-benzo[e]indole-1-carboxylate] | 13.3 | 320 | 2.03
CCOC(=O)c1c(C)[nH]c2c1-c1cc(Br)ccc1C(=O)C2=O [Example 1, Ethyl 8-bromo-2-methyl-4,5-dioxo-4,5-dihydro-3H-benzo[e]indole-1-carboxylate] | 13.2 | 450 | 5.78
CCOC(=O)c1c2c(n(C)c1CN1CCOCC1)C(=O)C(=O)c1ccc(Br)cc1-2 [Example 4, Ethyl 8-bromo-3-methyl-2-(morpholin-4′-yl)methyl-4,5-dioxo-4,5-dihydro-3H-benzo[e]indole-1-carboxylate] | 11 | 1100 | 4.8
CCOC(=O)c1c2c(n(CC(=O)OC(C)(C)C)c1C)C(=O)C(=O)c1ccc(Br)cc1-2 [Example 7, Ethyl 8-bromo-3-tert-butoxycarbonylmethyl-2-methyl-4,5-dioxo-4,5-dihydro-3H-benzo[e]indole-1-carboxylate] | 14.9 | 1600 | 9.3
CCOC(=O)c1c2c(n(CC(=O)O)c1C)C(=O)C(=O)c1ccc(Br)cc1-2 [Example 8, Ethyl 8-bromo-3-carboxymethyl-2-methyl-4,5-dioxo-4,5-dihydro-3H-benzo[e]indole-1-carboxylate] | 32.9 | > 12500 | > 12.5

Now those with a lower IC50 [1], led by results:

IC50 [1] [µM] | IC50 [2] [nM] | IC50 [3] [µM] | Structure (SMILES)
9.6 | 600 | > 12.5 | CCOC(=O)c1c2c(n(CC(N)=O)c1C)C(=O)C(=O)c1ccc(Br)cc1-2 [Example 9, Ethyl 8-bromo-3-carbamoylmethyl-2-methyl-4,5-dioxo-4,5-dihydro-3H-benzo[e]indole-1-carboxylate]
9.1 | 300 | 0.3 | CCOC(=O)c1c2c(n(C)c1CNC(C)C)C(=O)C(=O)c1ccc(Br)cc1-2 [Example 6, Ethyl 8-bromo-2-isopropylaminomethyl-3-methyl-4,5-dioxo-4,5-dihydro-3H-benzo[e]indole-1-carboxylate]
7.3 | 1080 | 14.5 | CCOC(=O)c1c2c(n(Cc3ccccc3)c1C)C(=O)C(=O)c1ccc(Br)cc1-2 [12(c), Ethyl 8-bromo-2-methyl-3-benzyl-4,5-dioxo-4,5-dihydro-3H-benzo[e]indole-1-carboxylate]
3.3 | 470 | 10.7 | CCOC(=O)c1c2c(n(C)c1C)C(=O)C(=O)c1ccc(Br)cc1-2 [Example 3, Ethyl 8-bromo-2,3-dimethyl-4,5-dioxo-4,5-dihydro-3H-benzo[e]indole-1-carboxylate]
1.5 | 260 | 1.2 | CCOC(=O)c1c2c(n(C)c1CN(C)C)C(=O)C(=O)c1ccc(Br)cc1-2 [Example 5, Ethyl 8-bromo-2-dimethylaminomethyl-3-methyl-4,5-dioxo-4,5-dihydro-3H-benzo[e]indole-1-carboxylate]
